The values that follow are results of earlier work, collected in patent US20140134693A1, “Eliminating the Need of Acidification in Bioethanol Production” (Anitox Corporation, priority 2012, published 2014).

Like-named read-outs stand apart in the source and are kept apart here.

The test system of data set [1] is Lactobacillus. The settings on record: 600 mg/L.
Data set [2] relates to Lactobacillus.
For a further data set, the system named is bacteria. The settings on record: sugarcane ethanol production.
Data set [3] deals with Most bacteria, with the exception of Lactobacillus casei. The note with it: ethanol fermentation process.

For `O=C(O)CCC(=O)O` [Succinic acid], the “reduction of Lactobacillus levels” value is on record as 78% with Lactobacillus [1] and “up to 96%” in the data set on Lactobacillus [1] (in the presence of ethanol).
In the case of `NC(N)=O.OO` [Urea hydrogen peroxide], the “bactericidal activity against Lactobacillus (in words)” value in the data set with Lactobacillus [2] is “excellent bactericidal activity”.
Regarding `CC1(C)S[C@@H]2[C@H](NC(=O)[C@H](N)c3ccccc3)C(=O)N2[C@H]1C(=O)O` [ampicillin], in the data set on bacteria, the bacteria resistant was 97%.
On to `OO` [hydrogen peroxide], for which the concentration controlling bacteria in data set [3] is given as 1 to 10 mM.
Take penicillin: the bacteria resistant with bacteria is given as 97%.
With virginiamycin, in the data set on bacteria, the bacteria resistant is given as 48%.
